Common to all, as to test: NCI-60 cell line screen, 48 h
The test system of experiment [1] is A498 renal.
In experiment [2] the test system is NCI-H226 lung.
The subject of experiment [3] is NCI-H460 lung.
Experiment [4] concerns SK-MEL-28 melanoma.
Experiment [5] deals with SK-MEL-5 melanoma.
Experiment [6] relates to SK-OV-3 ovarian.
Experiment [7] relates to TK-10 renal.
In experiment [8] the test system is UO-31 renal.
The test system of experiment [9] is SNB-75 CNS.

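The compound was tested at five concentrations on cells cultured in 96-well plates, with a 48-hour exposure period. GI50 = concentration required for 50% inhibition of growth. TGI: total growth inhibition.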 Bounds are passed on as bounds.

On to `S=c1nc(-c2ccnc(-c3nc(=S)[nH][nH]3)c2)[nH][nH]1`, for which the TGI in experiment [1], in experiment [2], in experiment [3], in [4], in experiment [5] and in experiment [6] was over 100 µM in each case. The TGI in experiment [7] and in experiment [8] was over 100 µM throughout.

For `COC(=O)/C(=N/NC(N)=O)C(C(=O)OC)C(=O)C(=O)Nc1ccc(Cl)cc1` (stereo not drawn), the TGI in [1], in experiment [2], in experiment [3], in experiment [4], in experiment [5] and in experiment [6] was over 100 µM each time. Moreover, the TGI in [9], in experiment [7] and in experiment [8] was over 100 µM in each case.

Turning to `CCCCCCCCCCCCOP(N)(=O)OCCCCCCCCCCCC`, the TGI in experiment [3], in experiment [4], in [6], in experiment [9], in [7] and in experiment [8] was over 100 µM throughout.

Turning to `COc1ccc2nc3ccccc3c(NCCCCN(C)CCCl)c2c1`, the TGI is 0.575 µM in experiment [2]; 0.234 µM in experiment [3]; 2.39 µM in experiment [4]; 0.442 µM in [5]; 0.469 µM in [6]; 0.504 µM in [9]. The TGI was over 31.9 µM in experiment [7] and 1.22 µM in experiment [8].

In the case of `COc1ccccc1NC(=O)C(CC(C(=O)Nc1ccccc1OC)/C(C)=N/Nc1ccc([N+](=O)[O-])cc1[N+](=O)[O-])/C(C)=N/Nc1ccc([N+](=O)[O-])cc1[N+](=O)[O-]` (stereo not drawn), the TGI in experiment [1], in experiment [2], in experiment [3], in experiment [4], in experiment [5] and in [6] was over 100 µM throughout. For the same compound, the TGI is over 100 µM in experiment [9], 60 µM in [7] and over 100 µM in [8].

As for `C[C@@H]1C[C@]2(C[C@@H](C)C3[C@@H](CC4(C)[C@@H]5CCC6C(C)(C)OC(=O)C=C[C@]67C[C@@]5(CC[C@]34C)OO7)O2)OC1=O` (stereo partly drawn), the TGI in [2] was over 100 µM; in experiment [3] it was over 100 µM; in experiment [4], over 100 µM; in [5] it was over 100 µM; in experiment [6] it was over 100 µM; in [9], 56.9 µM. Also, the TGI in experiment [7] and in experiment [8] was over 100 µM throughout.

In the case of `COC(=O)CC(C(C(C)=O)C(=O)OCc1ccccc1)N1C(=O)OCC1c1ccccc1` (stereo not drawn), the TGI in experiment [1] is over 100 µM; in experiment [2] it was over 100 µM; in [3], over 100 µM; in [4] it was over 100 µM; in experiment [5], over 100 µM; in experiment [9] it was 71.9 µM. Also, the TGI in experiment [7] and in experiment [8] was over 100 µM in each case.

On to `COc1cc2cc3c4c(cc(OC)c(OC)c4c2cc1OC)CCN3C(=O)CCC(=O)NCCCN(C)C`, for which the TGI in [2] is over 100 µM; in experiment [3] it was over 100 µM; in experiment [4] it was over 100 µM; in experiment [5], 28.2 µM; in experiment [6] it was over 100 µM; in experiment [9] it was 53.2 µM. Besides, the TGI in experiment [7] and in experiment [8] was over 100 µM throughout.

For `O=C1c2ccccc2C(=O)c2nc3ccc(Cl)cc3cc21`, the TGI in [2], in experiment [3], in experiment [4], in experiment [5], in [6] and in [9] was over 100 µM in each case. Further, the TGI in [7] and in experiment [8] was over 100 µM throughout.

Turning to `CCSC(SCC)=C1C(=O)N(c2ccccc2)N=C1C`, the TGI in [1] was 28.8 µM; in experiment [2] it was 29.9 µM; in experiment [3] it was 29.5 µM; in [4], 26.5 µM; in [5], 33.1 µM; in experiment [6] it was 33.4 µM. Further, the figures for the TGI in [9], in [7] and in [8] were 43.9 µM, 22.2 µM and 29 µM, respectively.

Turning to `O=C(Nc1cccc(NC(=O)c2cc(=O)c3ccccc3o2)n1)c1cc(=O)c2ccccc2o1`, the TGI in experiment [1], in experiment [3], in experiment [4], in experiment [5], in experiment [6] and in experiment [9] was over 100 µM in each case. For the same compound, the results for the TGI in [7] and in experiment [8] were over 100 µM and 85.6 µM, respectively.

`C[C@]12CC[C@H](OC3CCCCO3)CC1=CC[C@@H]1C2CC[C@]2(C)/C(=N/O)CCC12` (stereo partly drawn): the TGI is over 100 µM in experiment [1]; 62.1 µM in experiment [3]; 54.3 µM in [4]; over 100 µM in experiment [5]; 82 µM in [6]; 41.9 µM in experiment [9]. The TGI in [7] is 70.1 µM; in [8], over 100 µM.

As to `N[C@@H]1CCCC[C@@H]1N.O=P([O-])([O-])CN(CP(=O)([O-])[O-])CP(=O)([O-])[O-].[Pt+2]`, the GI50 in experiment [1], in experiment [2], in experiment [3], in [4], in [5] and in experiment [6] was over 100 µM throughout. The GI50 in [9], in experiment [7] and in [8] was over 100 µM in each case. For the same compound, the TGI in experiment [1], in experiment [2], in experiment [3], in [4], in [5] and in experiment [6] was over 100 µM each time. Further, the TGI in [9], in experiment [7] and in experiment [8] was over 100 µM in each case.

Turning to `CCOC(=O)[C@H]1Nc2ccccc2C2c3ccccc3CC21` (stereo partly drawn), the TGI in experiment [1] was 61.8 µM; in [2] it was over 100 µM; in experiment [3], over 100 µM; in [4], over 100 µM; in [5], 54.6 µM; in [9] it was over 100 µM. The TGI in experiment [7] and in [8] was over 100 µM in each case.

Values taken from PubChem BioAssay (NCI).
